From patent publication US11726081B2, “Methods to identify modulators of tau protein structure” (REGENTS OF THE UNIVERSITY OF MINNESOTA, priority 2019, dated 2023)
“Also recorded” adds a separate entry of the source.

Tests used:
[1] = molecular target: tau preformed fibrils (PFF) (Homo sapiens, UniProt P10636); experiment: ThT assay on tau preformed fibrils (PFF); type: biochemical; details: DTT 5 mM
Experimental: HEK293 cells were transfected with tau-RFP (at equivalent DNA concentration as used in the tau FRET biosensor) for 48 hours prior to the addition of tau preformed fibrils (PFF). Tau-GFP was not used as it would interfere with the thioflavin-S(ThS) signal. To make the PFF, 100 μl of purified tau proteins (10 μM) with DTT (5 mM) and heparin (0.4 mg/ml) were first incubated for 120 hours at 37° C. and shook at 1000 rpm in a thermal shaker (Thermo Fisher Scientific). After incubation, the sample was subjected to ultracentrifugation at 80,000 rpm for 30 minutes. The pellet was collected and sonicated to break up the fibrils into smaller pieces. The concentration of the fibrils was then measured by BCA. […] Cells were then imaged with a fluorescence microscope using EVOS-FL cell imaging systems at 20× magnification. Mean fluorescence intensity for each image was quantified using ImageJ and values were normalized to untransfected controls.
Thioflavin-T (ThT, Sigma, product no. T3516) was dissolved in PBS buffer and was filtered through a 0.2 μm syringe filter to make a stock solution of 2.5 mM. […] The ThT samples (50 μl each) were transferred to a black 96-well non-binding surface microplate with clear bottom (Corning product no. 3655) and incubated at 37° C. with mild shaking (200 rpm) in the Cytation 3 plate reader. […] Readings were acquired every 20 minutes for a total of 120 hours.

[2] = molecular target: T1, WT tau FRET biosensor (tau-GFP/RFP) (Homo sapiens, UniProt P10636); experiment: WT tau inter-molecular FRET biosensor in HEK293 cells (dose-response, functionality); type: cell-based; design: cDNA encoding full-length 2N4R tau (441 amino acids); […]; expressed in transfected cells; host or cells: HEK293, transient, tau-GFP:tau-RFP plasmids 1:20
T1 sequence (P10636 1-441 isoform P10636-8): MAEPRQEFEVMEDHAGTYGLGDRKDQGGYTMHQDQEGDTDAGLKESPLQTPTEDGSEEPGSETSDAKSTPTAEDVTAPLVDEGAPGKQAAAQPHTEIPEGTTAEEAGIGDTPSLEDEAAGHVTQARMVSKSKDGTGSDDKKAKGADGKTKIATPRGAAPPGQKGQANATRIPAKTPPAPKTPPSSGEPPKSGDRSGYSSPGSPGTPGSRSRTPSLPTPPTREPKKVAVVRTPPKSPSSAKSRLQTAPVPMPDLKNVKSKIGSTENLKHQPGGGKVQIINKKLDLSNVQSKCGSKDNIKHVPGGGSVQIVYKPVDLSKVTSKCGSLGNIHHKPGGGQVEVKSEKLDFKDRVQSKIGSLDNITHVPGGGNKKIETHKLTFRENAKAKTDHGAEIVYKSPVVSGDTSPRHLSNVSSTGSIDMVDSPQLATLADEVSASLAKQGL
T1 sequence (P10636 1-441 isoform P10636-8): as above
Experimental: (§1) HEK293 and SH-SY5Y cells (ATCC) were cultured in phenol red-free Dulbecco's Modified Eagle Medium (DMEM, Gibco) supplemented with 2 mM L-Glutamine (Invitrogen), heat-inactivated 10% fetal bovine serum (FBS HI, Gibco), 100 U/ml penicillin and 100 μg/ml streptomycin (Gibco). Cell cultures were maintained in an incubator with 5% CO2 (Forma Series II Water Jacket CO2 Incubator, Thermo Scientific) at 37° C. […] To generate stable cell lines expressing GFP-tau-RFP or tau-GFP only, HEK293 cells were transiently transfected using Lipofectamine 3000 with GFP-tau-RFP or tau-GFP DNA plasmids. Transiently transfected cells were treated with G418 (Enzo Life Sciences, Farmingdale, N.Y.) to eliminate non-expressing cells. Stable cell lines expressing GFP-tau-RFP or tau-GFP with the largest population of expressing cells were selected by fluorescence microscopy. The GFP-linker-RFP (linker contains 32 amino acids, GFP-32AA-RFP) control stable cell line was generated as described previously. The control cells expressing only free soluble fluorophores (GFP or RFP only) were generated by transiently transfecting HEK293 cells using Lipofectamine 3000 with plasmids containing GFP or RFP DNAs at the same plasmid concentration as the inter-molecular tau FRET biosensor.
(§2) The compound was dissolved in DMSO to make a 10 mM stock solution, which was serially diluted in 96-well mother plates. […]

purified WT tau proteins = purified WT tau proteins (Homo sapiens, UniProt P10636); experiment: Heparin induced thioflavin-T (ThT) aggregation assay; type: biochemical
Chain of purified WT tau proteins (P10636 1-441 isoform P10636-8): as above
Experimental: Thioflavin-T (ThT, Sigma, product no. T3516) was dissolved in PBS buffer and was filtered through a 0.2 μm syringe filter to make a stock solution of 2.5 mM. ThT was then diluted to […] prior to addition to the tau proteins. The samples for ThT measurements were prepared by mixing 25 μl of 20 μM tau proteins with 25 μl of 20 μM of ThT, resulting in final concentrations of 10 μM tau proteins and 10 μM ThT. DTT (5 mM) and heparin (0.4 mg/ml) were then added to the samples; a control sample lacked addition of heparin. Lastly, the samples were treated with MK-886 (0.5 μM or 5 μM) and gossypetin (50 μM) with DMSO added to the no-compound controls. The ThT samples (50 μl each) were transferred to a black 96-well non-binding surface microplate with clear bottom (Corning product no. 3655) and incubated at 37° C. with mild shaking (200 rpm) in the Cytation 3 plate reader. The ThT fluorescence was measured by the Cytation 3 plate reader through the bottom of the plate with excitation filter of 440 nm and emission filter of 480 nm. Readings were acquired every 20 minutes for a total of 120 hours.

GFP-32AA-RFP = GFP-32AA-RFP fluorophores-only FRET control; type: cell-based, human
Experimental: as §1, §2

WT 2N4R tau = experiment: Single-molecule FRET (smFRET) on labelled tau monomer; type: biochemical; details: 5 μM
Source text: For site-specific labeling with maleimide-reactive fluorophores, cysteine residues were introduced using QuikChange Site-Directed Mutagenesis (Stratagene). Naturally occurring cysteines were mutated to serines. Labelling positions were selected to roughly mark the boundaries of the N-terminal domain or the proline-rich and microtubule-binding region of tau. Tau protein was purified as described above and labeled immediately following purification following published protocols. Briefly, the protein (typically 200 μL of ˜100 μM protein) was incubated with 1 mM DTT for 30 minutes at room temperature followed by exchange into labeling buffer (20 mM Tris pH 7.4, 50 mM NaCl, and 6 M guanidine HCl) to remove DTT. […]
Single-molecule FRET measurements were carried out using ˜30 pM of labelled tau in phosphate buffer (40 mM potassium phosphate, 50 mM KCl, pH 7.4) in 8-chambered Nunc coverslips (ThermoFisher) passivated with poly(ethylene glycol) poly(L-lysine) (PEG-PLL) to reduce protein adsorption to the chambers. […] Fluorescence emission was collected through the objective and passed through a 150 μm diameter pinhole. Photons were separated by an HQ585LP dichroic in combination with ET525/50M and HQ600LP filters and detected by avalanche photodiodes. […] The FRET efficiency (ETeff) was calculated using SymphoTime 64 software. […]

[3] = molecular target: T2, tau intra-molecular FRET biosensor (GFP-tau-RFP) (Homo sapiens, UniProt P10636); experiment: Cellular tau intra-molecular FRET biosensor, dose-response; type: cell-based; details: GFP-tau-RFP stable HEK293 cells; read-out: EC50, reduction of intra-molecular FRET
T2 construct: The FRET biosensors express full-length 2N4R wild-type (WT) tau; […]; expressed in transfected cells
T2 sequence (P10636 1-441 isoform P10636-8): as above
Experimental: To generate tau-GFP and tau-RFP, cDNA encoding full-length 2N4R tau (441 amino acids) was fused to the N-terminus of EGFP and TagRFP vectors. […] The GFP-tau-RFP was generated by fusing the N-terminal of tau to the C-terminus of GFP and the C-terminus of tau to the N-terminus of RFP. All constructs contain the monomeric mutation A206K to prevent constitutive fluorophore clustering.
as §1, with “The control cells expressing only free soluble fluorophores (GFP or RFP only) were generated by transiently transfecting HEK293 cells using Lipofectamine 3000 with plasmids containing GFP or RFP DNAs at the same plasmid concentration as the inter-molecular tau FRET biosensor.” left out

[4] = molecular target: purified recombinant full-length 2N4R wild-type (WT) tau protein (Homo sapiens, UniProt P10636); experiment: Surface plasmon resonance (SPR) binding assay, WT tau; details: for direct binding to immobilized tau protein: 1 nM to 5 μM
Chain of purified recombinant full-length 2N4R wild-type (WT) tau protein (P10636 1-441 isoform P10636-8): as above

[5] = molecular target: T1, WT tau FRET biosensor (tau-GFP/RFP); experiment: Pilot HTS of NCC library with tau FRET biosensor (fluorescence lifetime); details: 10 μM, 2 hours
soluble free GFP/RFP = experiment: Soluble free GFP/RFP-only FRET control; type: cell-based, human
Experimental: as §1, §2

[6] = control, 72 hours of incubation

Chain of tau preformed fibrils (PFF) (P10636 1-441 isoform P10636-8): as above

O=c1c(O)c(-c2ccc(O)c(O)c2)oc2c(O)c(O)cc(O)c12 [gossypetin]
ThT signal from tau preformed fibrils (PFF) [1]: showed a significant decrease
sensitivity of the FRET biosensor to the compound ([2]; functionality test): not
direct effect on ThT fluorescence (purified WT tau proteins; [6]): do not interfere with ThT fluorescence

CC(C)c1ccc2c(c1)c(SC(C)(C)C)c(CC(C)(C)C(=O)O)n2Cc1ccc(Cl)cc1 [MK-886]
ThT signal from tau preformed fibrils (PFF) [1]: did not reduce the ThT signal
EC50 ([2]; read-out: EC50, decrease of FRET efficiency, WT tau biosensor): 1400 nM
direct effect on ThT fluorescence (purified WT tau proteins; [6]): did not have a direct effect on ThT fluorescence; also recorded: do not interfere with ThT fluorescence
nucleation of fibril formation without heparin (purified WT tau proteins; [6]): unable to nucleate tau fibrillization; also recorded: did not act to nucleate for fibril formation; also recorded: does not act as a nucleation center
lag phase of tau β-sheet fibril formation (purified WT tau proteins; heparin 0.4 mg/ml, MK-886 0.5 and 5 μM): reduces the lag phase; also recorded: shortens the lag phase
FRET change in GFP-32AA-RFP control cells (GFP-32AA-RFP): does not cause any significant FRET change
smFRET change, N-terminal domain labelled construct (WT 2N4R tau): only a minor decrease in FRET; also recorded: only minor differences
smFRET change, PRR/MTBR labelled construct (WT 2N4R tau): substantial increase in FRET; also recorded: substantially more compact (increase in FRET)
EC50 [3]: 2120 nM
direct binding to immobilized tau protein [4]: dose-dependent binding
Kd ([4]; steady-state, immobilized tau, 25° C.): 178 nM
size of FRET change among the hits [5]: strongest change in FRET; also recorded: largest FRET change
FRET change in soluble free GFP/RFP-only control cells (soluble free GFP/RFP): does not cause any significant FRET change

Cc1cccc(Nc2ccncc2S(=O)(=O)NC(=O)NC(C)C)c1 [Torsemide]
direct binding to immobilized tau protein [4]: no direct binding or interaction

Oc1cc(Cl)ccc1Oc1ccc(Cl)cc1Cl [Triclosan]
direct binding to immobilized tau protein [4]: no direct binding or interaction

CCc1oc2ccccc2c1C(=O)c1cc(Br)c(O)c(Br)c1 [Benzbromarone]
direct binding to immobilized tau protein [4]: no direct binding or interaction

CCCCNc1cc(C(=O)O)cc(S(N)(=O)=O)c1Oc1ccccc1 [Bumetanide]
direct binding to immobilized tau protein [4]: no direct binding or interaction
